ChEMBL document CHEMBL1145756, “Structure-activity relationships of indole cytosolic phospholipase A(2)alpha inhibitors: substrate mimetics” (Bioorg Med Chem Lett, 2003)
pIC50: −log10 of the molar value.

Assays:
[1] = target: T1, Cytosolic phospholipase A2 (Homo sapiens, UniProt P47712); assay: In vitro inhibition of cystolic phospholipase A2 alpha.
T1 sequence (P47712 whole entry): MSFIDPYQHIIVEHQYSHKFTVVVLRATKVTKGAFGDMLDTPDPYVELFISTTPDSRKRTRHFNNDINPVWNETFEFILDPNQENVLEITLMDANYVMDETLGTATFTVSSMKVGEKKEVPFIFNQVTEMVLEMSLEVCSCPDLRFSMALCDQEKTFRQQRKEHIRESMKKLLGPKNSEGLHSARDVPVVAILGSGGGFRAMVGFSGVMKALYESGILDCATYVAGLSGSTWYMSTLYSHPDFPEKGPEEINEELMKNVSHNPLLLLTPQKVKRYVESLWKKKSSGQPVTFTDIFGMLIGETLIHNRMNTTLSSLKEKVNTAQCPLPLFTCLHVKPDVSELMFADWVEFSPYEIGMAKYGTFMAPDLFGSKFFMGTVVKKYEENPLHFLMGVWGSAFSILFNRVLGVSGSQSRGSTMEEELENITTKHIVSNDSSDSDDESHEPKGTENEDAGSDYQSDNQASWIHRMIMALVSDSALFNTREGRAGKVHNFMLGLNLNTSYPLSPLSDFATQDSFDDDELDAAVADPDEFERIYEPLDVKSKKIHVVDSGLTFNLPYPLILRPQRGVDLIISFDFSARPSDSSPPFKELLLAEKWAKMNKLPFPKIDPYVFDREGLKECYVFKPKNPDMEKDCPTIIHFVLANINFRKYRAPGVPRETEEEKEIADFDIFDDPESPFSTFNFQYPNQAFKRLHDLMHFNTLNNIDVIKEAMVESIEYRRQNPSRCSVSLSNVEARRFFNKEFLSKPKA

[2] = Oral bioavailability in rat (dose 10 mg/kg); format: ADME, organism-based; settings: in vivo
[3] = target: T1, Cytosolic phospholipase A2; assay: Inhibitory concentration against cystolic phospholipase A2 alpha receptor (c-PLA2 alpha) using coumarin assay
Homo sapiens = species on record: Homo sapiens; assay: Inhibitory concentration against arachidonic acid release determined in human neutrophils PMN assay; format: functional

| pIC50 [1] | bioavailability [2] [%] | pIC50 [3] | pIC50 (Homo sapiens) | Compound |
| --- | --- | --- | --- | --- |
| 5.30 | – | – | – | COc1cc(C(=O)O)ccc1Cc1cn(C(c2ccccc2)c2ccccc2)c2ccc(NC(=O)OC3CCCC3)cc12 |
| 4.70 | – | – | – | COc1cc(C(=O)O)ccc1Cc1cn(C(c2ccccc2)c2ccccc2)c2ccc(NS(C)(=O)=O)cc12 |
| 5.70 | – | – | – | COc1cc(C(=O)O)ccc1Cc1cn(C(c2ccccc2)c2ccccc2)c2ccc(S(C)(=O)=O)cc12 |
| 6.00 | – | – | – | COc1cc(C(=O)O)ccc1Cc1cn(C(c2ccccc2)c2ccccc2)c2ccc(F)cc12 |
| 5.35 | – | – | – | COc1cc(C(=O)O)ccc1Cc1cn(C(c2ccccc2)c2ccccc2)c2cccc(Cl)c12 |
| 6.10 | 63 | – | – | COc1cc(C(=O)O)ccc1Cc1cn(C(c2ccccc2)c2ccccc2)c2cc(Cl)ccc12 |
| 5.44 | – | – | – | COc1cc(C(=O)O)ccc1Cc1cn(C(c2ccccc2)c2ccccc2)c2ccccc12 |
| 4.42 | – | – | – | COc1cc(C(=O)NS(=O)(=O)c2ccccc2C)ccc1Cc1cn(Cc2ccncc2)c2ccc(NC(=O)OC3CCCC3)cc12 |
| 4.82 | – | – | – | CCCCNC(=O)Nc1ccc2c(c1)c(Cc1ccc(C(=O)O)cc1OC)cn2C(c1ccccc1)c1ccccc1 |
| – | 16 | 6.22 | 5.92 | COc1cc(C(=O)O)ccc1Cc1cn(C(c2ccccc2)c2ccccc2)c2ccc(Br)cc12 |
| 4.77 | – | – | – | COc1cc(C(=O)NS(=O)(=O)c2ccccc2C)ccc1Cc1cn(C2CCCC2)c2ccc(NC(=O)OC3CCCC3)cc12 |
| 4.39 | – | – | – | COc1cc(C(=O)O)ccc1Cc1cn(C(c2ccccc2)c2ccccc2)c2ccc(N)cc12 |
| 4.70 | – | – | – | COc1cc(C(=O)NS(=O)(=O)c2ccccc2C)ccc1Cc1cn(CC2CC2)c2ccc(NC(=O)OC3CCCC3)cc12 |
| – | 38 | 6.05 | – | COc1cc(C(=O)O)ccc1Cc1cn(C(c2ccccc2)c2ccccc2)c2ccc(C)cc12 |
| 4.62 | – | – | – | COc1cc(C(=O)O)ccc1Cc1cn(C(c2ccccc2)c2ccccc2)c2ccc(N(C)C)cc12 |
| – | 22 | 6.40 | 5.74 | COc1cc(C(=O)O)ccc1Cc1cn(C(c2ccccc2)c2ccccc2)c2ccc(Cl)cc12 |
| 5.68 | – | – | – | COc1cc(C(=O)O)ccc1Cc1cn(C(c2ccccc2)c2ccccc2)c2c(Cl)cccc12 |
| – | – | 6.40 | 5.74 | COc1cc(C(=O)O)ccc1Cc1cn(C(c2ccccc2)c2ccccc2)c2ccc([N+](=O)[O-])cc12 |
| 5.72 | – | – | – | COc1ccc2c(c1)c(Cc1ccc(C(=O)O)cc1OC)cn2C(c1ccccc1)c1ccccc1 |
| 5.22 | – | – | – | COc1cc(C(=O)NS(=O)(=O)c2ccccc2C)ccc1Cc1cn(C(c2ccccc2)c2ccccc2)c2ccc(NC(=O)OC3CCCC3)cc12 |
| – | 19 | 6.10 | 5.89 | COc1cc(C(=O)O)ccc1Cc1cn(C(c2ccccc2)c2ccccc2)c2ccc(C#N)cc12 |
| 4.07 | – | – | – | COc1cc(C(=O)NS(=O)(=O)c2ccccc2C)ccc1Cc1cn(C)c2ccc(NC(=O)OC3CCCC3)cc12 [ZAFIRLUKAST] |
